# In US10610520B2, “Heterocyclic compound” (Takeda Pharmaceutical Company Limited, priority 2016, dated 2020):
# Target: T1, His-hMAGL (recombinant polyhistidine tagged human MAGL protein) (Homo sapiens, UniProt Q99685)
# T1 construct: made in house; host or cells: E. coli BL21(DE3)
# T1 sequence (Q99685 1-303): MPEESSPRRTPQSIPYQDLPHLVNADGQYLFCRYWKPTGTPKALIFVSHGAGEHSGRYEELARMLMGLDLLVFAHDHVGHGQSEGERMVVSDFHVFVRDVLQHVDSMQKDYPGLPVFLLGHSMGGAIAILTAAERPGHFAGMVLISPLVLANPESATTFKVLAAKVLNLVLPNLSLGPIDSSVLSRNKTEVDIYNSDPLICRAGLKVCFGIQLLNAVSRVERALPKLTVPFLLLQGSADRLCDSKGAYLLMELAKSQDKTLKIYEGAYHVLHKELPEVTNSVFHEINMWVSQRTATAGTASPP
# Experiment: Measurement of MAGL inhibitory activity (arachidonic acid production from 2-arachidonylglycerol, RapidFire-mass spectrometry)
# Format: biochemical
# Details: MAGL inhibitory rate, test compound 10 μM, 60 min preincubation, 2-arachidonylglycerol substrate
# How it was run: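 Arachidonic acid formed was quantified by online solid-phase extraction and triple-quadrupole MS in negative SRM mode against a d8 internal standard. Reaction: recombinant His-hMAGL (7.5 ng/mL, pH 7.5 Tris buffer with Triton X-100 and BSA) plus 2-AG (5 μL of 150 μM stock) for 10 min at room temperature, quenched with 2% formic acid. Percent inhibition corrected for enzyme-free background.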
row,inhibition at 10 µM,Compound
1,94%,"O=C1CCC2(CN(C(=O)c3sc4cc(-c5ccc(OC(F)(F)F)cc5)ccc4c3Cl)C2)N1 [Example 200, 2-((3-chloro-6-(4-(trifluoromethoxy)phenyl)-1-benzothiophen-2-yl)carbonyl)-2,5-diazaspiro[3.4]octan-6-one]"
2,101%,"O=C1NC2(CO1)CN(C(=O)c1sc3cc(OC(F)F)ccc3c1Cl)C2 [Example 259, 2-((3-chloro-6-(difluoromethoxy)-1-benzothiophen-2-yl)carbonyl)-7-oxa-2,5-diazaspiro[3.4]octan-6-one]"
3,96%,"O=C1CCC2(CN(C(=O)c3ccc(-c4ccc(OC(F)(F)F)cc4)cc3)C2)N1 [Example 58, 2-((4′-(trifluoromethoxy)biphenyl-4-yl)carbonyl)-2,5-diazaspiro[3.4]octan-6-one]"
4,94%,"COc1c(F)cc(-c2ccc(C(=O)N3CC4(CCC(=O)N4)C3)cc2)cc1F [Example 71, 2-((3′,5′-difluoro-4′-methoxybiphenyl-4-yl)carbonyl)-2,5-diazaspiro[3.4]octan-6-one]"
5,80%,"O=C1NC2(CCN(C(=O)c3sc4cc(Cl)cc(Cl)c4c3Cl)C2)CO1 (stereo not shown) [Example 325, 7-((3,4,6-trichloro-1-benzothiophen-2-yl)carbonyl)-3-oxa-1,7-diazaspiro[4.4]nonan-2-one]"
6,94%,"Cn1c(-c2ccc(C(=O)N3CC4(CCC(=O)N4)C3)cc2)cc2ccccc21 [Example 56, 2-(4-(1-methyl-1H-indol-2-yl)benzoyl)-2,5-diazaspiro[3.4]octan-6-one]"
7,100%,"Cc1ccc(CO[C@H]2C[C@@H](C(=O)N3CC4(COC(=O)N4)C3)C2)cc1Cl [Example 356, 2-((cis-3-((3-chloro-4-methylbenzyl)oxy)cyclobutyl)carbonyl)-7-oxa-2,5-diazaspiro[3.4]octan-6-one]"
8,101%,"Cc1cc(OC(F)(F)F)cc2sc(C(=O)N3CCC4(COC(=O)N4)C3)c(Cl)c12 (stereo not shown) [Example 331, 7-((3-chloro-4-methyl-6-(trifluoromethoxy)-1-benzothiophen-2-yl)carbonyl)-3-oxa-1,7-diazaspiro[4.4]nonan-2-one]"
9,93%,"Cc1c(C(=O)N2CC3(CCC(=O)N3)C2)sc2ccc([N+](=O)[O-])cc12 [Example 151, 2-((3-methyl-5-nitro-1-benzothiophen-2-yl)carbonyl)-2,5-diazaspiro[3.4]octan-6-one]"
10,101%,"COC(=O)c1cccc(-c2ccc(CC3CCN(C(=O)N4CC5(CCC(=O)N5)C4)CC3)cc2)c1 [Example 110, methyl 4′-((1-((6-oxo-2,5-diazaspiro[3.4]oct-2-yl)carbonyl)piperidin-4-yl)methyl)biphenyl-3-carboxylate]"
11,98%,"O=C1CCC2(CN(C(=O)c3ccc(-c4cccc(OCC5CC5)c4)cc3)C2)N1 [Example 171, 2-((3′-(cyclopropylmethoxy)biphenyl-4-yl)carbonyl)-2,5-diazaspiro[3.4]octan-6-one]"
12,100%,"O=C1NC2(CO1)CN(C(=O)c1sc3c(Cl)ccc(OC(F)(F)F)c3c1Cl)C2 [Example 297, 2-((3,7-dichloro-4-(trifluoromethoxy)-1-benzothiophen-2-yl)carbonyl)-7-oxa-2,5-diazaspiro[3.4]octan-6-one]"
13,101%,"O=C1CCC2(CN(C(=O)N3CCC(Cc4ccc(N5CCCCC5)cc4)CC3)C2)N1 [Example 111, 2-((4-(4-(piperidin-1-yl)benzyl)piperidin-1-yl)carbonyl)-2,5-diazaspiro[3.4]octan-6-one]"
14,97%,"O=C1CCC2(CN(C(=O)c3ccc(-c4cc(F)c(F)cc4F)cc3)C2)N1 [Example 70, 2-((2′,4′,5′-trifluorobiphenyl-4-yl)carbonyl)-2,5-diazaspiro[3.4]octan-6-one]"
15,83%,"O=C1CCC2(CN(C(=O)c3cc4cc(OCc5ccc(Cl)cc5Cl)ccc4s3)C2)N1 [Example 149, 2-((5-((2,4-dichlorobenzyl)oxy)-1-benzothiophen-2-yl)carbonyl)-2,5-diazaspiro[3.4]octan-6-one]"
16,100%,"O=C1NC2(CO1)CN(C(=O)c1sc3cc(OC(F)F)cc(C(F)(F)F)c3c1Cl)C2 [Example 292, 2-((3-chloro-6-(difluoromethoxy)-4-(trifluoromethyl)-1-benzothiophen-2-yl)carbonyl)-7-oxa-2,5-diazaspiro[3.4]octan-6-one]"
17,100%,"O=C1NC2(CO1)CN(C(=O)[C@H]1C[C@@H](OCc3ccc(Cl)c(Cl)c3)C1)C2 [Example 353, 2-((cis-3-((3,4-dichlorobenzyl)oxy)cyclobutyl)carbonyl)-7-oxa-2,5-diazaspiro[3.4]octan-6-one]"

row,inhibition at 10 µM,Compound
1,92%,"O=C1CCC2(CN(C(=O)[C@H]3CC[C@H](c4ccc(O)cc4)CC3)C2)N1 [Example 173, 2-((trans-4-(4-hydroxyphenyl)cyclohexyl)carbonyl)-2,5-diazaspiro[3.4]octan-6-one]"
2,96%,"O=C1CCC2(CN(C(=O)N3CCC(F)(Cc4ccc(F)cc4)CC3)C2)N1 [Example 97, 2-((4-fluoro-4-(4-fluorobenzyl)piperidin-1-yl)carbonyl)-2,5-diazaspiro[3.4]octan-6-one]"
3,99%,"O=C1NC2(CO1)CN(C(=O)c1sc3cc(F)cc(OCC4CC4)c3c1Cl)C2 [Example 363, 2-((3-chloro-4-(cyclopropylmethoxy)-6-fluoro-1-benzothiophen-2-yl)carbonyl)-7-oxa-2,5-diazaspiro[3.4]octan-6-one]"
4,94%,"Cc1ccc(Cl)c(-c2ccc(C(=O)N3CC4(CCC(=O)N4)C3)cc2)c1 [Example 81, 2-((2′-chloro-5′-methylbiphenyl-4-yl)carbonyl)-2,5-diazaspiro[3.4]octan-6-one]"
5,96%,"Cc1ccc(-c2ccc3c(Cl)c(C(=O)N4CC5(CCC(=O)N5)C4)sc3c2)cc1F [Example 206, 2-((3-chloro-6-(3-fluoro-4-methylphenyl)-1-benzothiophen-2-yl)carbonyl)-2,5-diazaspiro[3.4]octan-6-one]"
6,98%,"O=C1CCC2(CN(C(=O)c3ccc(-c4ccc(C(F)(F)F)cc4)cc3)C2)N1 [Example 40, 2-((4′-(trifluoromethyl)biphenyl-4-yl)carbonyl)-2,5-diazaspiro[3.4]octan-6-one]"
7,99%,"O=C1CCC2(CN(C(=O)c3sc4cc(-c5cc(Cl)ccc5F)ccc4c3Cl)C2)N1 [Example 222, 2-((3-chloro-6-(5-chloro-2-fluorophenyl)-1-benzothiophen-2-yl)carbonyl)-2,5-diazaspiro[3.4]octan-6-one]"
8,95%,"O=C1CCC2(CN(C(=O)c3ccc(-c4ccccc4OC(F)(F)F)cc3)C2)N1 [Example 62, 2-((2′-(trifluoromethoxy)biphenyl-4-yl)carbonyl)-2,5-diazaspiro[3.4]octan-6-one]"
9,98%,"O=C1CCC2(CN(C(=O)c3sc4cc(-c5cccc(OC(F)(F)F)c5)ccc4c3Cl)C2)N1 [Example 201, 2-((3-chloro-6-(3-(trifluoromethoxy)phenyl)-1-benzothiophen-2-yl)carbonyl)-2,5-diazaspiro[3.4]octan-6-one]"
10,99%,"O=C1CCC2(CN(C(=O)c3ccc(COc4ccccc4C(F)(F)F)cc3)C2)N1 [Example 5, 2-(4-((2-(trifluoromethyl)phenoxy)methyl)benzoyl)-2,5-diazaspiro[3.4]octan-6-one]"
11,101%,"O=C1CCC2(CN(C(=O)N3CCC(Cc4ccccc4F)CC3)C2)N1 [Example 96, 2-((4-(2-fluorobenzyl)piperidin-1-yl)carbonyl)-2,5-diazaspiro[3.4]octan-6-one]"
12,97%,"O=C1CCC2(CN(C(=O)c3sc4cc(OC(F)(F)F)ccc4c3C(F)F)C2)N1 [Example 265, 2-((3-(difluoromethyl)-6-(trifluoromethoxy)-1-benzothiophen-2-yl)carbonyl)-2,5-diazaspiro[3.4]octan-6-one]"
13,101%,"O=C1CCC2(CN(C(=O)N3CCC(COc4ccc5c(c4)CCCC5)CC3)C2)N1 [Example 239, 2-((4-((5,6,7,8-tetrahydronaphthalen-2-yloxy)methyl)piperidin-1-yl)carbonyl)-2,5-diazaspiro[3.4]octan-6-one]"
14,101%,"CC1(c2cccc(-c3ccc(C(=O)N4CC5(COC(=O)N5)C4)cc3F)c2)CC1 [Example 274, 2-((2-fluoro-3′-(1-methylcyclopropyl)biphenyl-4-yl)carbonyl)-7-oxa-2,5-diazaspiro[3.4]octan-6-one]"
15,100%,"O=C1NC2(CCN(C(=O)N3CCC(COc4ccc(F)cc4Cl)CC3)C2)CO1 (stereo not shown) [Example 322, 7-((4-((2-chloro-4-fluorophenoxy)methyl)piperidin-1-yl)carbonyl)-3-oxa-1,7-diazaspiro[4.4]nonan-2-one]"
16,98%,"O=C1CCC2(CN(C(=O)c3ccc(-c4cc(Cl)ccc4Cl)cc3)C2)N1 [Example 80, 2-((2′,5′-dichlorobiphenyl-4-yl)carbonyl)-2,5-diazaspiro[3.4]octan-6-one]"
17,99%,"O=C1CCC2(CN(C(=O)c3sc4cc(-c5cccc(C(F)(F)F)c5)ccc4c3Cl)C2)N1 [Example 196, 2-((3-chloro-6-(3-(trifluoromethyl)phenyl)-1-benzothiophen-2-yl)carbonyl)-2,5-diazaspiro[3.4]octan-6-one]"
